Read-outs that look alike come from different tables or passages of the source.
Biological target: T1, Human pyruvate kinase R (PKR) (Homo sapiens, UniProt P30613)
T1 construct: Human pyruvate kinase R (PKR), residues 14-574; 6xHis-8xArg-SUMO (N, cleaved yes); host or cells: E. coli
Assay: Biochemical assay for activation of pyruvate kinase R (Kinase-Glo luminescence, ATP generation)
Settings: for Emax: read-out: PKR % activation, maximal activation level achieved with each compound relative to the activation level achieved by AG-348 @ 10 μM
How it was run: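 Recombinant human PKR (residues 14-574) expressed in E. coli with His-Arg-SUMO tag, tag cleaved, purified by Ni-NTA, anion exchange and size exclusion. Activation read as ATP generation by Kinase-Glo luminescence.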

[1] = PKR AC50 (nM), 0.1 nM PKR, 0.3 mM ADP, 0.1 mM PEP, 1% DMSO

T1 sequence (P30613 14-574): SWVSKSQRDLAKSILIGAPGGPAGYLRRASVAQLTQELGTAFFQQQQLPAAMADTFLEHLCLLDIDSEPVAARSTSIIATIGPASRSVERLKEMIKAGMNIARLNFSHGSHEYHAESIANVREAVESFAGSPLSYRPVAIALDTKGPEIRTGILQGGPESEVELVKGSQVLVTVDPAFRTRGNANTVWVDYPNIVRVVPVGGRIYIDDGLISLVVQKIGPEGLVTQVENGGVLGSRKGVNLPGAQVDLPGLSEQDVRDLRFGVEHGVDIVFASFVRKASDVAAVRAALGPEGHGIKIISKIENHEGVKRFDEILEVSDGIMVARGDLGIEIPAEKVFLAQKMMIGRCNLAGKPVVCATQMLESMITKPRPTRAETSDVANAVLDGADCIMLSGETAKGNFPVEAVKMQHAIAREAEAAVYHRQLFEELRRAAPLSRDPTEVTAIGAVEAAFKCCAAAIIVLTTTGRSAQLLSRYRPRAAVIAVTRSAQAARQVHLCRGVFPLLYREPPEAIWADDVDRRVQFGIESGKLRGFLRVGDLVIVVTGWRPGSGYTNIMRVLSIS

| AC50 [1] | Emax | AC50 | Structure (SMILES) |
| --- | --- | --- | --- |
| 5.7 nM | 131% | – | O=C([C@H](CO)c1ccccc1Cl)N1Cc2cn(S(=O)(=O)c3cnn(CCF)c3)nc2C1 [Compound 90, (2S)-2-(2-chlorophenyl)-1-{2-[1-(2-fluoroethyl)pyrazol-4-ylsulfonyl]-4H,6H-pyrrolo[3,4-c]pyrazol-5-yl}-3-hydroxypropan-1-one] |
| 91 nM | 164% | – | O=C([C@@H](CO)c1ccccc1Cl)N1Cc2cn(S(=O)(=O)c3cnn(CCF)c3)nc2C1 [Compound 91, (2R)-2-(2-chlorophenyl)-1-{2-[1-(2-fluoroethyl)pyrazol-4-ylsulfonyl]-4H,6H-pyrrolo[3,4-c]pyrazol-5-yl}-3-hydroxypropan-1-one] |
| 34 nM | 18% | – | CCn1cc(S(=O)(=O)n2cc3c(n2)CN(C(=O)[C@H](CO)c2ccccc2)C3)c(C(F)(F)F)n1 [Compound 94, (2S)-1-{2-[1-ethyl-3-(trifluoromethyl)pyrazol-4-ylsulfonyl]-4H,6H-pyrrolo[3,4-c]pyrazol-5-yl}-3-hydroxy-2-phenylpropan-1-one] |
| 2900 nM | 15% | – | CCn1cc(S(=O)(=O)n2cc3c(n2)CN(C(=O)[C@@H](CO)c2ccccc2)C3)c(C(F)(F)F)n1 [Compound 95, (2R)-1-{2-[1-ethyl-3-(trifluoromethyl)pyrazol-4-ylsulfonyl]-4H,6H-pyrrolo[3,4-c]pyrazol-5-yl}-3-hydroxy-2-phenylpropan-1-one] |
| 74 nM | 67% | – | CCc1ccccc1[C@@H](CO)C(=O)N1Cc2cn(S(=O)(=O)c3cnn(CC(F)F)c3)nc2C1 [Compound 105, (S)-1-(2-((1-(2,2-difluoroethyl)-1H-pyrazol-4-yl)sulfonyl)-2,6-dihydropyrrolo[3,4-c]pyrazol-5(4H)-yl)-2-(2-ethylphenyl)-3-hydroxypropan-1-one] |
| 210 nM | 189% | – | CCc1ccccc1[C@H](CO)C(=O)N1Cc2cn(S(=O)(=O)c3cnn(CC(F)F)c3)nc2C1 [Compound 106, (R)-1-(2-((1-(2,2-difluoroethyl)-1H-pyrazol-4-yl)sulfonyl)-2,6-dihydropyrrolo[3,4-c]pyrazol-5(4H)-yl)-2-(2-ethylphenyl)-3-hydroxypropan-1-one] |
| 1600 nM | 42% | – | CCn1ncc(S(=O)(=O)n2cc3c(n2)CN(C(=O)[C@H](CO)c2ccccc2)C3)c1C(F)(F)F [Compound 111, (2S)-1-{2-[1-ethyl-5-(trifluoromethyl)pyrazol-4-ylsulfonyl]-4H,6H-pyrrolo[3,4-c]pyrazol-5-yl}-3-hydroxy-2-phenylpropan-1-one] |
| 3100 nM | 174% | – | CCn1ncc(S(=O)(=O)n2cc3c(n2)CN(C(=O)[C@@H](CO)c2ccccc2)C3)c1C(F)(F)F [Compound 112, (2R)-1-{2-[1-ethyl-5-(trifluoromethyl)pyrazol-4-ylsulfonyl]-4H,6H-pyrrolo[3,4-c]pyrazol-5-yl}-3-hydroxy-2-phenylpropan-1-one] |
| – | 47% | 24 nM | O=C([C@H](CO)c1ccccc1)N1Cc2cn(S(=O)(=O)c3cnn(C4CCOC4)c3)nc2C1 (stereo partly drawn) [Compound 113, (2S)-3-hydroxy-1-(2-{[1-(oxolan-3-yl)-1H-pyrazol-4-yl]sulfonyl}-2H,4H,5H,6H-pyrrolo[3,4-c]pyrazol-5-yl)-2-phenylpropan-1-one] |
| 34 nM | 53% | – | O=C([C@H](CO)c1ccccc1)N1Cc2cn(S(=O)(=O)c3cnn(C(F)F)c3)nc2C1 [Compound 116, (2S)-1-(2-{[1-(difluoromethyl)-1H-pyrazol-4-yl]sulfonyl}-2H,4H,5H,6H-pyrrolo[3,4-c]pyrazol-5-yl)-3-hydroxy-2-phenylpropan-1-one] |
| 22 nM | 35% | – | O=C([C@H](CO)c1ccccc1)N1Cc2cn(S(=O)(=O)c3csc(C(F)(F)F)c3)nc2C1 [Compound 117, (2S)-3-hydroxy-2-phenyl-1-(2-{[5-(trifluoromethyl)thiophen-3-yl]sulfonyl}-2H,4H,5H,6H-pyrrolo[3,4-c]pyrazol-5-yl)propan-1-one] |
| – | 13% | 160 nM | O=C([C@H](CO)c1ccccc1)N1Cc2cn(S(=O)(=O)c3c[nH]c(C(F)(F)F)c3)nc2C1 [Compound 118, (2S)-3-hydroxy-2-phenyl-1-(2-{[5-(trifluoromethyl)-1H-pyrrol-3-yl]sulfonyl}-2H,4H,5H,6H-pyrrolo[3,4-c]pyrazol-5-yl)propan-1-one] |
| – | 58% | 54 nM | CCOc1ncc(S(=O)(=O)n2cc3c(n2)CN(C(=O)[C@H](CO)c2ccccc2)C3)s1 [Compound 119, (2S)-1-{2-[(2-ethoxy-1,3-thiazol-5-yl)sulfonyl]-2H,4H,5H,6H-pyrrolo[3,4-c]pyrazol-5-yl}-3-hydroxy-2-phenylpropan-1-one] |
| – | 102% | 16 nM | COc1ccccc1[C@@H](CO)C(=O)N1Cc2cn(S(=O)(=O)c3cnn(CC(F)F)c3)nc2C1 [Compound 120, (2S)-1-{2-[1-(2,2-difluoroethyl)pyrazol-4-ylsulfonyl]-4H,6H-pyrrolo[3,4-c]pyrazol-5-yl}-3-hydroxy-2-(2-methoxyphenyl)propan-1-one] |
| – | 166% | 98 nM | COc1ccccc1[C@H](CO)C(=O)N1Cc2cn(S(=O)(=O)c3cnn(CC(F)F)c3)nc2C1 [Compound 121, (2R)-1-{2-[1-(2,2-difluoroethyl)pyrazol-4-ylsulfonyl]-4H,6H-pyrrolo[3,4-c]pyrazol-5-yl}-3-hydroxy-2-(2-methoxyphenyl)propan-1-one] |

The remaining lines, values behind:

| Structure (SMILES) | AC50 [1] | Emax | AC50 |
| --- | --- | --- | --- |
| Cc1c(S(=O)(=O)n2cc3c(n2)CN(C(=O)[C@H](CO)c2ccccc2F)C3)cnn1CCF [Compound 96] | – | 93% | 6.4 nM |
| Cc1c(S(=O)(=O)n2cc3c(n2)CN(C(=O)[C@@H](CO)c2ccccc2F)C3)cnn1CCF [Compound 97, (2R)-1-{2-[1-(2-fluoroethyl)-5-methylpyrazol-4-ylsulfonyl]-4H,6H-pyrrolo[3,4-c]pyrazol-5-yl}-2-(2-fluorophenyl)-3-hydroxypropan-1-one] | – | 102% | 550 nM |
| Cc1c(S(=O)(=O)n2cc3c(n2)CN(C(=O)[C@H](CO)c2ccccc2Cl)C3)cnn1CCF [Compound 98, (2S)-2-(2-chlorophenyl)-1-{2-[1-(2-fluoroethyl)-5-methylpyrazol-4-ylsulfonyl]-4H,6H-pyrrolo[3,4-c]pyrazol-5-yl}-3-hydroxypropan-1-one] | 9.1 nM | 117% | – |
| Cc1c(S(=O)(=O)n2cc3c(n2)CN(C(=O)[C@@H](CO)c2ccccc2Cl)C3)cnn1CCF [Compound 99, (2R)-2-(2-chlorophenyl)-1-{2-[1-(2-fluoroethyl)-5-methylpyrazol-4-ylsulfonyl]-4H,6H-pyrrolo[3,4-c]pyrazol-5-yl}-3-hydroxypropan-1-one] | 410 nM | 100% | – |
| Cc1c(S(=O)(=O)n2cc3c(n2)CN(C(=O)[C@@H](CO)c2ccccc2F)C3)cnn1CC(F)F [Compound 100, (R)-1-(2-((1-(2,2-difluoroethyl)-5-methyl-1H-pyrazol-4-yl)sulfonyl)-2,6 dihydropyrrolo[3,4-c]pyrazol-5(4H)-yl)-2-(2-fluorophenyl)-3-hydroxypropan-1-one] | – | 126% | 380 nM |
| Cc1c(S(=O)(=O)n2cc3c(n2)CN(C(=O)[C@H](CO)c2ccccc2Cl)C3)cnn1CC(F)F [Compound 101, (2S)-2-(2-chlorophenyl)-1-{2-[1-(2,2-difluoroethyl)-5-methylpyrazol-4-ylsulfonyl]-4H,6H-pyrrolo[3,4-c]pyrazol-5-yl}-3-hydroxypropan-1-one] | 8.5 nM | 123% | – |
| Cc1c(S(=O)(=O)n2cc3c(n2)CN(C(=O)[C@@H](CO)c2ccccc2Cl)C3)cnn1CC(F)F [Compound 102, (2R)-2-(2-chlorophenyl)-1-{2-[1-(2,2-difluoroethyl)-5-methylpyrazol-4-ylsulfonyl]-4H,6H-pyrrolo[3,4-c]pyrazol-5-yl}-3-hydroxypropan-1-one] | 690 nM | 126% | – |
| COc1ccccc1[C@@H](CO)C(=O)N1Cc2cn(S(=O)(=O)c3cnn(CC(F)F)c3C)nc2C1 [Compound 103, (2S)-1-{2-[1-(2,2-difluoroethyl)-5-methylpyrazol-4-ylsulfonyl]-4H,6H-pyrrolo[3,4-c]pyrazol-5-yl}-3-hydroxy-2-(2-methoxyphenyl)propan-1-one] | 26 nM | 101% | – |
| COc1ccccc1[C@H](CO)C(=O)N1Cc2cn(S(=O)(=O)c3cnn(CC(F)F)c3C)nc2C1 [Compound 104, (2R)-1-{2-[1-(2,2-difluoroethyl)-5-methylpyrazol-4-ylsulfonyl]-4H,6H-pyrrolo[3,4-c]pyrazol-5-yl}-3-hydroxy-2-(2-methoxyphenyl)propan-1-one] | 560 nM | 121% | – |
| O=C([C@H](CO)c1ccccc1Cl)N1Cc2cn(S(=O)(=O)c3ncn(CC(F)F)n3)nc2C1 [Compound 107, (2S)-2-(2-chlorophenyl)-1-{2-[1-(2,2-difluoroethyl)-1,2,4-triazol-3-ylsulfonyl]-4H,6H-pyrrolo[3,4-c]pyrazol-5-yl}-3-hydroxypropan-1-one] | 53 nM | 89% | – |
| O=C([C@@H](CO)c1ccccc1Cl)N1Cc2cn(S(=O)(=O)c3ncn(CC(F)F)n3)nc2C1 [Compound 108, (2R)-2-(2-chlorophenyl)-1-{2-[1-(2,2-difluoroethyl)-1,2,4-triazol-3-ylsulfonyl]-4H,6H-pyrrolo[3,4-c]pyrazol-5-yl}-3-hydroxypropan-1-one] | 3300 nM | 62% | – |
| COC(C(=O)N1Cc2cn(S(=O)(=O)c3cnn(CC(F)F)c3)nc2C1)c1ccccc1F (centres unmarked) [Compound 114] | 320 nM | 134% | – |
| COC(C(=O)N1Cc2cn(S(=O)(=O)c3cnn(CC(F)F)c3)nc2C1)c1ncccc1F (centres unmarked) [Compound 115, 1-(2-{[1-(2,2-difluoroethyl)-1H-pyrazol-4-yl]sulfonyl}-2H,4H,5H,6H-pyrrolo[3,4-c]pyrazol-5-yl)-2-(3-fluoropyridin-2-yl)-2-methoxyethan-1-one] | – | 96% | 2100 nM |

— US11566030B2, “Substituted 2,6-dihydropyrrolo[3,4-c]pyrazoles as pyruvate kinase activators” (priority 2021, dated 2023)
